Results as given in patent publication US20130287807A1, “COMPOUNDS FOR TREATING SYMPTOMS ASSOCIATED WITH PARKINSON'S DISEASE” (priority 2008, published 2013).
“Also recorded” adds a separate entry of the source. Ends that are not written are not given here.

Experiments:
[1] = test system: monoclonal antibody MV-002; experiment: In vitro binding assay (ELISA), BSA-coupled peptides, parental antibody MV-002; design: species or system C57/B16 mice; conditions: Table 1 (MV-002); peptide-BSA on plate, compared to original epitope
Protocol: Peptides derived from Phage Display as well as variants thereof were coupled to BSA and bound to ELISA plates (1 μM; as indicated in the respective figures) and subsequently incubated with the monoclonal antibody that was used for the screening procedure to analyse binding capacity of identified peptides.
Legend to Table 1: the binding capacity is coded by the following binding code: 1:X describes the dilution factor of the parental AB. Ac- . . . indicates acetylated AA.

[2] = test system: monoclonal antibody (DAEFRH-peptide-specific); experiment: Inhibition assay (ELISA): mimotope peptides compete with plate-bound original epitope DAEFRH for recognition by the monoclonal antibody; assay type: binding, Mice; design: key to inhibition (s/m/—): s: strong inhibition; m: moderate inhibition; —: -: no inhibition; conditions: for inhibition of binding of the monoclonal antibody to the original epitope: text to FIGS. 2-9; for Inhibitory capacity of mimotopes: summary Tables 1 and 2 (Examples 2, 3)
From the text: Mice are vaccinated with the 6mer peptide DAEFRH (natural N-terminal Aβ42 sequence) linked to the protein bovine serum albumin BSA (to make use of the hapten-carrier-effect), emulsified in CFA (first injection) and IFA (booster injections). DAEFRH-peptide-specific, antibody-producing hybridomas are detected by ELISA (DAEFRH-peptide-coated ELISA plates).
FIGS. 2 and 3 describe the results of inhibition assays performed with mimotope peptides included in and obtained from the 5 libraries (as described in WO 2004/062556). The mimotope peptides compete with the original epitope for recognition by the monoclonal antibody. Original epitope and mimotope peptides contain an additional C at the C-terminus for coupling to a protein carrier (if desired).
(§1) After blocking with PBS/BSA 1% (200 μl/well, 12 h, 4° C.), the plates are washed 3× times with PBS/Tween. Then, biotinylated monoclonal antibody (1:2000, 50 μl/well) and peptides (50 μl/well) at 50, 5, 0.5, 0.05, 0.005, and 0.0005 μg/ml are added for 20 min. at 37° C. The plates are washed 3× times with PBS/Tween and are incubated with horseradish peroxidase (HRP)-labeled streptavidin (100 μl/well, 30 min, RT). The plates are washed 5× times with PBS/Tween and are incubated with ABTS+H2O2(0.1% w/v, 10 to 45 min) and the reaction is stopped with citric acid followed by photometric evaluation (wavelength 405 nm).
as §1, with “different concentrations” for “50, 5, 0.5, 0.05, 0.005, and 0.0005 μg/ml”, “ABTS+H2O2 (0.1%” for “ABTS+H2O2(0.1%”
as §1, with “different concentrations” for “50, 5, 0.5, 0.05, 0.005, and 0.0005 μg/ml”

[3] = biological target: monoclonal antibody MV-001; experiment: ELISA on peptide-BSA; code 3 = strong binding, OD halfmax 1:>20000
[4] = biological target: monoclonal antibody MV-001; experiment: ELISA on peptide-BSA; code 2 = medium binding, OD halfmax 1:4000-20000
[5] = competition ELISA, plate-bound DAEFRH-C-BSA

Molecule: GEIRFALC [p4678]
- Binding Capacity [1]: 3 (strong binding :>320000)

Molecule: GQLKFPFC [p4690]
- Binding Capacity [1]: 3 (strong binding :>320000)

Molecule: GQIRFDHC [p4669]
- Binding Capacity [1]: 3 (strong binding :>320000)

Molecule: GEMQFFIC [p4676]
- Binding Capacity [1]: 3 (strong binding :>320000)

Molecule: AIPLFVMC [p4682]
- Binding Capacity [1]: 1 (weak binding :<40000)

Molecule: AGEIYFERC [p4806]
- Binding Capacity [1]: 1 (weak binding :<40000)

Molecule: GEMWFALC [p4671]
- Binding Capacity [1]: 3 (strong binding :>320000)

Molecule: GTIFFRDC [p4692]
- Binding Capacity [1]: 1 (weak binding :<40000)

Molecule: GDLKFPLC [p4683]
- Binding Capacity [1]: 3 (strong binding :>320000)

Molecule: GQIIFQSC [p4668]
- Binding Capacity [1]: 2 (medium binding :40000-320000)

Molecule: CGEIYFER [p4807]
- Binding Capacity [1]: 1 (weak binding :<40000)

Molecule: GELQFPPC [p4672]
- Binding Capacity [1]: 3 (strong binding :>320000)

Molecule: GELYFRAC [p4677]
- Binding Capacity [1]: 3 (strong binding :>320000)

Molecule: KLPLFVMC [p4691]
- Binding Capacity [1]: 1 (weak binding :<40000)

Molecule: GELFFEKC [p4795]
- Binding Capacity [1]: 2 (medium binding :40000-320000)

Molecule: HMRMYFEC [p4687]
- Binding Capacity [1]: 3 (strong binding :>320000)

Molecule: GEIRFELC [p4796]
- Binding Capacity [1]: 2 (medium binding :40000-320000)

Molecule: Ac-GEIYFERC [p4804]
- Binding Capacity [1]: 2 (medium binding :40000-320000)

Molecule: QLPLFVLC [p4700]
- Binding Capacity [1]: 1 (weak binding :<40000)

Molecule: GQIKFAQC [p4694]
- Binding Capacity [1]: 3 (strong binding :>320000)

Molecule: GMIVFPHC [p4679]
- Binding Capacity [1]: 3 (strong binding :>320000)

Molecule: GTLIFHHC [p4695]
- Binding Capacity [1]: 2 (medium binding :40000-320000)

Molecule: GQIQFPLC [p4697]
- Binding Capacity [1]: 3 (strong binding :>320000)

Molecule: CC[C@H](C)[C@H](NC(=O)[C@H](CCCNC(=N)N)NC(=O)[C@H](CC(C)C)NC(=O)[C@H](CCC(=O)O)NC(=O)[C@H](Cc1c[nH]c2ccccc12)NC(=O)[C@@H](N)CC(=O)O)C(=O)N[C@@H](CS)C(=O)O [Peptide 3002, DWELRI]
- inhibition of binding of the monoclonal antibody to the original epitope [2, 5]: block epitope recognition
- Inhibitory capacity of mimotopes [2]: intermediate

Molecule: GQILFPVC [p4684]
- Binding Capacity [1]: 3 (strong binding :>320000)

Molecule: GELFFPKC [p4685]
- Binding Capacity [1]: 3 (strong binding :>320000)

Molecule: GQIWFISC [p4666]
- Binding Capacity [1]: 1 (weak binding :<40000)

Molecule: YREFRI (YREFRIC) [Peptide 3004]
- inhibition of binding of the monoclonal antibody to the original epitope [2, 5]: block epitope recognition; also recorded: only inhibitory at a high concentration (50 μg/ml)
- Inhibitory capacity of mimotopes [2]: weak

Molecule: GSLFFWPC [p4688]
- Binding Capacity [1]: 2 (medium binding :40000-320000)

Molecule: GQIMFPRC [p4686]
- Binding Capacity [1]: 3 (strong binding :>320000)

Molecule: SGEIYFERC [p4805]
- Binding Capacity [1]: 1 (weak binding :<40000)

Molecule: C[C@@H](O)[C@H](NC(=O)[C@H](CCCNC(=N)N)NC(=O)[C@H](Cc1ccccc1)NC(=O)[C@H](CCC(=O)O)NC(=O)[C@H](Cc1c[nH]c2ccccc12)NC(=O)[C@@H](N)CO)C(=O)N[C@@H](CS)C(=O)O [Peptide 4002, SWEFRT]
- IC50 (inhibition of monoclonal antibody recognition of DAEFRH) ([2]; competition ELISA, plate-bound DAEFRH-C-BSA, biotinylated mAb 1:2000): less than 0.4 μg/ml
- inhibition of binding of the monoclonal antibody to the original epitope [2, 5]: block epitope recognition
- Inhibitory capacity of mimotopes [2]: strong

Molecule: ATYAYWN [Peptide 4038]
- inhibition of binding of the monoclonal antibody to the original epitope [2, 5]: not inhibitory
- inhibition (s/m/—) ([2]; peptide lists of Example 4): —

Molecule: ELFKHHLC [p4714]
- OD halfmax 1:X (dilution factor of the parental antibody at half-maximal OD) (dilutionfactor(1:x)) [3]: > 20000

Molecule: GEMRHQPC [p4702]
- OD halfmax 1:X (dilution factor of the parental antibody at half-maximal OD) (dilutionfactor(1:x)) [3]: > 20000

Molecule: EFLRHTLC [p4722]
- OD halfmax 1:X (dilution factor of the parental antibody at half-maximal OD) (dilutionfactor(1:x)) [3]: > 20000

Molecule: APMYFPHC [p4717]
- OD halfmax 1:X (dilution factor of the parental antibody at half-maximal OD) (dilutionfactor(1:x)) [4]: 4000 to 20000

Molecule: QVMRHHAC [p4711]
- OD halfmax 1:X (dilution factor of the parental antibody at half-maximal OD) (dilutionfactor(1:x)) [4]: 4000 to 20000

Molecule: LHIPFRHC [p4726]
- OD halfmax 1:X (dilution factor of the parental antibody at half-maximal OD) (dilutionfactor(1:x)) [3]: > 20000

Molecule: VELRHSRC [p4704]
- OD halfmax 1:X (dilution factor of the parental antibody at half-maximal OD) (dilutionfactor(1:x)) [4]: 4000 to 20000

Molecule: SAGSFRHC [p4710]
- OD halfmax 1:X (dilution factor of the parental antibody at half-maximal OD) (dilutionfactor(1:x)) [3]: > 20000

Molecule: NELRHSTC [p4701]
- OD halfmax 1:X (dilution factor of the parental antibody at half-maximal OD) (dilutionfactor(1:x)) [3]: > 20000

Molecule: QLFKHSPC [p4747]
- OD halfmax 1:X (dilution factor of the parental antibody at half-maximal OD) (dilutionfactor(1:x)) [3]: > 20000

Molecule: YSMRHDAC [p4705]
- OD halfmax 1:X (dilution factor of the parental antibody at half-maximal OD) (dilutionfactor(1:x)) [4]: 4000 to 20000

Molecule: DTYFPRSC [p4703]
- OD halfmax 1:X (dilution factor of the parental antibody at half-maximal OD) (dilutionfactor(1:x)) [4]: 4000 to 20000

Molecule: SELRHSTC [p4744]
- OD halfmax 1:X (dilution factor of the parental antibody at half-maximal OD) (dilutionfactor(1:x)) [3]: > 20000

Molecule: SNFRHSVC [p4749]
- OD halfmax 1:X (dilution factor of the parental antibody at half-maximal OD) (dilutionfactor(1:x)) [3]: > 20000

Molecule: ATFRHSPC [p4716]
- OD halfmax 1:X (dilution factor of the parental antibody at half-maximal OD) (dilutionfactor(1:x)) [4]: 4000 to 20000

Molecule: AANYFPRC [p4706]
- OD halfmax 1:X (dilution factor of the parental antibody at half-maximal OD) (dilutionfactor(1:x)) [4]: 4000 to 20000

Molecule: YEFRHAQC [p4748]
- OD halfmax 1:X (dilution factor of the parental antibody at half-maximal OD) (dilutionfactor(1:x)) [3]: > 20000

Molecule: SNSEFRRC [p4743]
- OD halfmax 1:X (dilution factor of the parental antibody at half-maximal OD) (dilutionfactor(1:x)) [3]: > 20000

Molecule: ATPLFRHC [p4723]
- OD halfmax 1:X (dilution factor of the parental antibody at half-maximal OD) (dilutionfactor(1:x)) [3]: > 20000

Molecule: SSSFFPRC [p4708]
- OD halfmax 1:X (dilution factor of the parental antibody at half-maximal OD) (dilutionfactor(1:x)) [4]: 4000 to 20000

Molecule: THMEFRRC [p4745]
- OD halfmax 1:X (dilution factor of the parental antibody at half-maximal OD) (dilutionfactor(1:x)) [3]: > 20000

Molecule: NSSELRHC [p4752]
- OD halfmax 1:X (dilution factor of the parental antibody at half-maximal OD) (dilutionfactor(1:x)) [3]: > 20000

Molecule: APIQFRHC [p4750]
- OD halfmax 1:X (dilution factor of the parental antibody at half-maximal OD) (dilutionfactor(1:x)) [3]: > 20000

Molecule: SEFSHSSC [p4712]
- OD halfmax 1:X (dilution factor of the parental antibody at half-maximal OD) (dilutionfactor(1:x)) [3]: > 20000

Molecule: SQSYFKHC [p4755]
- OD halfmax 1:X (dilution factor of the parental antibody at half-maximal OD) (dilutionfactor(1:x)) [3]: > 20000
